Reference: ChEMBL document CHEMBL3763070, “Development of CINPA1 analogs as novel and potent inverse agonists of constitutive androstane receptor” (Eur J Med Chem, 2016)

The compounds below were run against T1, Nuclear receptor subfamily 1 group I member 3 (Homo sapiens, UniProt Q14994) (assay: Inverse agonist activity at GST tagged-human CAR-LBD assessed as reduction in fluorescein-PGC1 alpha coactivator recruitment after 1 hr by TR-FRET assay).
T1 sequence (Q14994 whole entry): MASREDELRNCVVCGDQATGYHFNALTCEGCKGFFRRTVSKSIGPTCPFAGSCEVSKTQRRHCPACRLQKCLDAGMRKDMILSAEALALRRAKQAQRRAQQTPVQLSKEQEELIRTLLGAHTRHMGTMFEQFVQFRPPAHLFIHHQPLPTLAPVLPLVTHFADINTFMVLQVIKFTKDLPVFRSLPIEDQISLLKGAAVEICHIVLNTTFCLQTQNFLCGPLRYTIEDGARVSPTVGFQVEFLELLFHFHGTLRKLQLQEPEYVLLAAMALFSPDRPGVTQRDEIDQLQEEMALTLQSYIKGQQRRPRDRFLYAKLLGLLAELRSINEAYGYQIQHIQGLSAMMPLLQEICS
With `CCOC(=O)Nc1ccc2c(c1)N(C(=O)CN)c1ccccc1CC2` the IC50 was > 70000 nM.
Compound `CC(C)OC(=O)Nc1ccc2c(c1)N(C(=O)COC1CCCC1)c1ccccc1CC2` has an IC50 of 19.5 nM.
Work on `CC(C)OCC(=O)N1c2ccccc2CCc2ccc(NC(=O)OC(C)(C)C)cc21` yielded an IC50 of 116 nM.
With `O=C(Nc1ccc2c(c1)N(C(=O)Cn1cccc1)c1ccccc1CC2)OC1CCCCC1` the IC50 was 11.7 nM.
`CCCN(CCC)CC(=O)N1c2ccccc2CCc2ccc(NC(=O)OC(C)C)cc21` gave an IC50 of 116 nM.
`CCN(CC)CC(=O)N1c2ccccc2CCc2ccc(NC(=O)OC(C)(C)C)cc21` was tested, and the IC50 was 1030 nM.
`CC(C)(C)OC(=O)Nc1ccc2c(c1)N(C(=O)Cn1cccc1)c1ccccc1CC2` showed an IC50 of 31.9 nM.
With `CCN(CC)CC(=O)N1c2ccccc2CCc2ccc(NC(=O)OC(C)C)cc21` the IC50 was 680 nM.
Work on `CC(C)(C)OC(=O)Nc1ccc2c(c1)N(C(=O)CN1CCCCC1)c1ccccc1CC2` yielded an IC50 of 216 nM.
